According to US10935541B2 (priority 2014, dated 2021):
Entries after “also recorded” stand apart in the source; their conditions may differ. Like-named read-outs stand apart in the source and are kept apart here.

How the values were obtained:
[1] = system: co-cultures of primary rat muscle cells and motoneurons; assay type: cell-based; settings: for average contraction frequency: co-culture 13 days in vitro, n=10, spontaneous 1.4 Hz; for contractile force (average peak force): mean ± SEM
Description: (§1) Myotube contraction was recorded and characterized via measurement of cantilever deflection using an automated system. In this system, cantilevers supporting co-cultured myotubes and motoneurons were inserted into a transparent culture dish fitted into a modified upright Olympus BX51WI electrophysiology microscope. The culture dish was filled with NBActiv4 medium (+10 mM HEPES) to maintain the cells during the analysis. A heated culture dish system (Delta T, Bioptechs, Butler, Pa.) was incorporated into the stage to maintain the culture at 37° C. throughout the analysis.
The automated system consisted of a Helium Neon laser beam that was automatically scanned across the tips of each cantilever at a 30° angle relative to the plane of the cantilever. A quadrant photo-detector module was also moved to detect the reflected beam. Four stepper motor-driven linear actuators attached to XY translational stages controlled the positions of the laser and photo-detector, with each unit mounted to an XY stage and requiring an actuator for the X and Y translation directions. A temperature-controlled stage was incorporated into the unit to maintain the cells at physiological temperature. Stainless steel electrodes were mounted inside the stage dish at a separation distance of 15 mm. To allow the system to produce field stimulation of myotubes when appropriate, the electrodes were connected to a pulse generator (A-M systems, Sequim, Wash.), which was capable of producing field stimulation pulses of varying intensity, frequency, and waveform.
(§2) Broad field electrical stimulation was first used to verify the contractile ability of the cultured myotubes. Cultures were subjected to a 3 V, 40 ms pulse at a frequency of 1 Hz, and the cantilevers were scanned for 5 seconds each to identify those with active myotubes. Across all experimental conditions, a successful contractile response was taken as any peak equal to or larger than 0.1 V.
(§3) The electrical stimulus was then switched off and the active cantilevers scanned again in order to observe the rate of spontaneous contraction. This condition was followed by bath application of 200 μM glutamate to stimulate motoneuron firing, and the cantilevers were again scanned for evidence of contractile activity. A second application of glutamate was made following addition of 12.5 μM D-tubocurarine (Sigma-Aldrich) to block neuromuscular transmission. The cantilevers were again scanned for contractile activity following this treatment. Finally, cantilevers were subjected to the same broad-field electrical stimulation as was used initially and scanned for contractile activity to verify that the treatments had not destroyed the contractile capability of the myotube or caused the cells to detach.
(§4) Conversion of photo-detector readings to cantilever deflection and myotube force were performed using a modified Stoney's equation (Wilson et al., 2010). Briefly, the photo-detector measured the changes in cantilever bending-induced laser deflection (reported in Volts) from which the deflection of the cantilever tip was calculated. Equations (1) and (2) are restated equations (see, e.g., Wilson et al., 2010) for cantilever tip deflection (δ) and stress produced by the myotube, assuming a uniform thick film the full width of the cantilever (σc). The system parameters used in these equations were the system-specific coefficient relating voltage to laser position on the photo-detector (Cdetector), the angle of the laser and detector relative to the plane of the cantilever (A), the elastic modulus of silicon (ESi), the thicknesses of the cantilever (tSi) and myotube (tf), poison's ratio of silicon (vSi), cantilever length (L), path length of laser from cantilever tip to detector (P), and the width of the cantilever (wsi).
(§5) Differences in force per contraction and in contraction frequency were measured for the three conditions: (i) Spontaneous activity, (ii) 200 μM glutamate, and (iii) 12.5 μM D-tubocurarine following glutamate. […]

[2] = system: myotubes from muscle-only cultures; assay type: cell-based, rat
Description: Muscle-only control cultures were established in parallel to all co-cultures examined. These cultures were subjected to identical culture parameters minus the plating of ventral horn cells after 7 days in vitro.
as §1, §2, §3, §4
as §5, with “glutamate. The differences were evaluated statistically using one-way repeated measures ANOVA (α=0.05) both for the muscle-only controls and for the motoneuron-myotube co-cultures.” for “glutamate.”

[3] = system: neuromuscular junction; assay type: cell-based
[4] = system: ventral horn motoneurons; assay: Whole-cell patch-clamp recording of cultured motoneurons, response to glutamate; assay type: cell-based, rat
Text: After 11-13 days in vitro, electrophysiological properties of ventral horn motoneurons were investigated using whole-cell patch-clamp recording techniques. Glass coverslips with cultured ventral horn cells were transferred to a recording chamber located on the stage of a Zeiss Axioscope 2FS Plus upright microscope. Motoneurons were identified visually under an infrared differential interference contrast (DIC) video-microscope. The largest multipolar cells (15-20 μm diameters) with bright somas were identified as motoneurons. Borosilicate glass patch pipettes (BF 150-86-10; Sutter Instrument Company) with a resistance of 6-10 MΩ were made using a Sutter P97 pipette puller (Sutter Instrument Company). Current-clamp and voltage-clamp recordings were made using a Multiclamp 700 A amplifier (Axon instruments). The pipette (intracellular) solution contained 1 mM EGTA, 140 mM K-gluconate, 2 mM MgCl2, 2 mM Na2ATP and 10 mM HEPES (pH 7.2). NBActiv4 medium plus 10 mM HEPES (pH 7.2) was used as the extracellular solution.
After the formation of a giga-ohm seal and membrane puncture, the cell capacitance was compensated. Signals were filtered at 3 kHz and sampled at 20 kHz using a Digidata 1322A interface (Axon Instruments). Data recording and analysis were performed with pClamp8 software (Axon Instruments). Membrane potentials were corrected by subtraction of a 15 mV tip potential, which was calculated using Axon's pClamp8 program. Depolarization-evoked inward and outward currents were examined in voltage-clamp mode. Depolarization-evoked action potentials were examined in current-clamp mode and induced using 1 second depolarizing current injections from a −70 mV holding potential. Action potentials elicited in response to 200 μM glutamate (an excitatory neurotransmitter) (Sigma-Aldrich) injection into the extracellular solution were likewise measured in current-clamp mode from a −70 mV holding potential.
Patch-clamp recordings verified the ability of the co-culture protocol to promote the maturation of electrically-active motoneurons after 11-13 days in culture. […]

For `COc1cc2c3cc1Oc1cc(ccc1O)C[C@@H]1c4c(cc(OC)c(O)c4Oc4ccc(cc4)C[C@@H]3N(C)CC2)CC[N+]1(C)C` [D-tubocurarine], the average contraction frequency ([1]; 12.5 μM D-tubocurarine with glutamate) was 1.4 Hz, the “contractile force compared with force in response to glutamate” value ([1]; 12.5 μM D-tubocurarine, co-culture) was “not significantly different” and the “contractile force (average peak force)” value ([1]; after addition of 12.5 μM D-tubocurarine, co-culture) was 45.1 nN. For the same molecule, the “effect on glutamate-increased contraction frequency” value ([1]; all cases of glutamate increasing contraction frequency by at least 2 Hz) was “returned the contraction frequency to spontaneous levels”, the “inhibitory effect on myotube contraction” value ([2]; 12.5 μM D-tubocurarine, all control cases) was “no inhibitory effect on myotube contraction” and the “contraction frequency compared with frequency in response to glutamate” value ([2]; 12.5 μM D-tubocurarine, muscle-only controls, p=0.04) was “significant increase in contraction frequency”.
For α-Bungarotoxin, the “effect on myotube contractions, stimulation from first chamber (myotube side)” value [3] was “did not inhibit contraction; also recorded: contractions are still possible” and the “effect on myotube contractions, stimulation from second chamber (motoneuron side)” value [3] was “less and less responsive; also recorded: decreased contraction of the myotubes”.
For `N[C@@H](CCC(=O)O)C(=O)O` [glutamate], the average contraction frequency ([1]; 200 μM glutamate) was 4.9 Hz, the “effect on force generated by contracting myotubes” value ([1]; glutamate, co-culture, n=10, p=0.60) was “no significant effect” and the “contractile force (average peak force)” value ([1]; glutamate-evoked contractions, 200 μM, co-culture, spontaneous 106.0 nN) was 67.4 nN. For the same molecule, the “largest increase in contraction frequency in response to glutamate” value ([2]; 200 μM glutamate, muscle-only controls) was 0.85 Hz, the “effect on contraction frequency” value ([2]; 200 μM glutamate, muscle-only cultures, n=10) was “did not significantly alter contraction frequency” and the “effect on force generated by contracting myotubes” value ([2]; glutamate, muscle-only controls, n=7, p=0.24) was “no effect”. For the same molecule, the “duration of motoneuron activity in response to glutamate” value ([4]; 200 μM glutamate bath application) was “roughly 2.5 minutes”, the “response of motoneurons to bath application (membrane depolarization, action potentials)” value ([4]; 200 μM glutamate, gap-free current-clamp, -70 mV holding potential, n=17) was “depolarization of the membrane and elicited action potentials in all motoneurons examined” and the “response of patched motoneurons to a second application” value ([4]; second application of glutamate, n=3) was “again depolarized the motoneuron membrane in all cells examined”.
